Patent publication US20080241274A1 (ZIOPHARM Oncology, Inc., priority 2006, published 2008)

Tests used:
[1] = test system: biotin-labeled calf brain tubulin; experiment: Competition with 3H-colchicine for tubulin binding (SPA beads); set-up: species or system bovine; details: 200-fold molar excess of cold competitor; FIG. 8
Description: Where indicated, a 200-fold molar excess of cold competitor was added. Tubulin heterodimers were then precipitated with streptavidin-coated SPA beads and bound radioactivity was determined. “No tubulin” indicates non-specifically bound radioactivity measured in the absence of biotin-labeled tubulin.

[2] = test system: human prostate cancer xenograft (PC-3); experiment: PC-3 prostate cancer xenograft; type: in vivo; details: 180 mg/kg/d, d. 0, 7, 14, at sacrifice of control group animals
Source text: (§1) The significant differences in pharmacodynamics and safety profile of indibulin make it a strong candidate for development as an anti-cancer drug.

[3] = test system: series of cancer models (RENCA, DMBA, SK-OV-3, PC-3, A431, U 87, MCF-7, A 549); experiment: Series of cancer models in animals (overall statement); type: in vivo
Source text: as §1

O=C(Nc1ccncc1)C(=O)c1cn(Cc2ccc(Cl)cc2)c2ccccc12 [Indibulin, N-(pyridin-4-yl)-[1-(4-chlorobenzyl)-indol-3-yl]-glyoxylic acid amide]
Inhibition of 3H-colchicine binding [1]: about 40%
Growth Inhibition (%) [2]: 63%
Anti-tumor activity in all models ([3]; all models tested): strong and statistically significant anti-tumor activity
Neurotoxicity or loss of body weight ([3]; animals at efficacious doses): no signs of neurotoxicity or loss of body weight
